Experimental data taken from PubChem BioAssay (NCI).
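Assay format: 96-well plates, 48-hour exposure. At the GI50, growth is halved. TGI: concentration producing complete growth inhibition.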

Key:
Assay in all cases: growth of human tumour cells (NCI), 48 h
[1] = test system: SN12C renal
[2] = test system: A549 NSCLC
[3] = test system: NCI-H460 lung
[4] = test system: 786-0 renal
[5] = test system: LOX IMVI melanoma
[6] = test system: HCC-2998 colon
[7] = test system: SK-MEL-5 melanoma
[8] = test system: M14 melanoma
[9] = test system: NCI-H522 lung
[10] = test system: CCRF-CEM leukemia

Row | Compound | GI50 [1] | TGI [1] | GI50 [2] | TGI [2] | GI50 [3] | TGI [3] | GI50 [4] | TGI [4] | GI50 [5] | TGI [5] | GI50 [6] [µM] | TGI [6] [µM] | GI50 [7] | TGI [7] | TGI [8] | TGI [9] | TGI [10] | GI50 [8] | GI50 [9] | GI50 [10]
1 | O=c1c2c3c(sc2n2c(-c4cc(-c5ccccc5)nn4-c4ccccc4)nnc2n1Cc1ccccc1)CCCC3 | > 100 µM | > 100 µM | > 100 µM | > 100 µM | > 100 µM | > 100 µM | > 100 µM | > 100 µM | > 100 µM | > 100 µM | > 100 | > 100 | > 100 µM | > 100 µM | – | – | – | – | – | –
2 | NC(N)=NS(=O)(=O)c1ccc(NC(=O)c2cccc3c(Nc4ccc(S(N)(=O)=O)cc4)c4ccccc4nc23)cc1 | – | > 100 µM | – | > 100 µM | – | > 100 µM | – | > 100 µM | – | > 100 µM | – | > 100 | – | > 100 µM | > 100 µM | > 100 µM | > 100 µM | – | – | –
3 | N=S(c1ccccc1)c1ccccc1[N+](=O)[O-] (stereo unspecified) | – | 29.2 µM | – | 32.1 µM | – | 51 µM | – | 30.3 µM | – | 28.2 µM | – | 33.4 | – | 28.5 µM | 27.7 µM | 11.7 µM | 43.4 µM | – | – | –
4 | O=C(NC12CC3CC(CC(C3)C1)C2)C(=O)c1c[nH]c2ccc(Cl)cc12 | – | > 100 µM | – | > 100 µM | – | > 100 µM | – | 34.6 µM | – | 84.8 µM | – | > 100 | – | > 100 µM | > 100 µM | > 100 µM | > 100 µM | – | – | –
5 | OB1OCc2cc(/C=C/c3cccc(C(F)(F)F)c3)ccc21 | 1.46 µM | > 100 µM | 0.695 µM | 19.6 µM | 0.48 µM | 22.8 µM | 0.365 µM | 10.1 µM | 0.302 µM | 1.25 µM | 2.54 | > 100 | 2.05 µM | 81.4 µM | 35.3 µM | 87.9 µM | 33.7 µM | 0.653 µM | 0.991 µM | 0.459 µM
6 | Cn1c2ccccc2c2c(=O)c3ccccc3[nH]c21 | 38.5 µM | > 100 µM | 26.9 µM | > 100 µM | 32.4 µM | > 100 µM | 33.7 µM | > 100 µM | 44.2 µM | > 100 µM | – | – | 42.9 µM | > 100 µM | – | > 100 µM | – | – | > 100 µM | –
7 | CCOC(=O)/C(=C/c1cccc(OC)c1)N(CC)CC | – | – | – | > 100 µM | – | – | – | > 100 µM | – | > 100 µM | – | – | – | > 100 µM | > 100 µM | > 100 µM | > 100 µM | – | – | –
8 | NC(=O)c1cccc(Nc2nccc(Nc3cccc(F)c3)n2)c1 | 7.98 µM | > 25 µM | 7.45 µM | > 25 µM | 7 µM | > 25 µM | 9.15 µM | > 25 µM | 7.66 µM | > 25 µM | 18.5 | > 25 | 4.9 µM | > 16.3 µM | > 25 µM | > 23.8 µM | > 25 µM | 8.92 µM | 5.82 µM | 8.54 µM
9 | Cl[Si]1(Cl)Oc2ccccc2O[Si](Cl)(Cl)Oc2ccccc2O1 | – | > 100 µM | – | > 100 µM | – | 65.9 µM | – | 21.5 µM | – | 36.5 µM | – | 53.5 | – | 27 µM | 34.3 µM | 5.4 µM | 10.5 µM | – | – | –
10 | Cn1cc(-c2csc(-c3cn(C)c4ccccc34)n2)c2cnccc21 | 1.66 µM | 3.1 µM | 2.38 µM | 5.01 µM | 1.79 µM | 3.49 µM | 1.95 µM | 3.53 µM | – | – | 1.26 | 2.6 | 1.69 µM | 3.07 µM | 2.96 µM | 3.84 µM | 3.86 µM | 1.51 µM | 2 µM | 1.78 µM
11 | COC1OC(C)C(OCc2ccccc2)C(OS(=O)(=O)c2ccc(C)cc2)C1OS(=O)(=O)c1ccc(C)cc1 (stereo unspecified) | – | > 100 µM | – | > 100 µM | – | > 100 µM | – | > 100 µM | – | – | – | > 100 | – | > 100 µM | > 100 µM | > 100 µM | > 100 µM | – | – | –
12 | COc1cccc(/C=C2\CCC(C)(CN(C)C)C2=O)c1 (stereo unspecified) | – | > 100 µM | – | > 100 µM | – | > 100 µM | – | > 100 µM | – | > 100 µM | – | > 100 | – | > 100 µM | > 100 µM | 91.6 µM | – | – | – | –
13 | CCCCCCCCCCCCCCCCCCNC(=O)[C@H]1CSC(c2cccs2)N1 (stereo partly specified) | 0.885 µM | 1.76 µM | 1.69 µM | > 50 µM | 0.754 µM | 1.69 µM | 1.13 µM | 2.49 µM | 0.834 µM | 2.02 µM | 1.06 | 2.31 | – | – | 1.66 µM | > 50 µM | 2.03 µM | 0.868 µM | 3.59 µM | 0.372 µM
14 | OC(CN1CC1)C(O)CN1CC1 (stereo unspecified) | > 50 mg/L | > 50 mg/L | > 50 mg/L | > 50 mg/L | > 50 mg/L | > 50 mg/L | > 50 mg/L | > 50 mg/L | > 50 mg/L | > 50 mg/L | – | – | > 50 mg/L | > 50 mg/L | > 50 mg/L | > 50 mg/L | > 50 mg/L | > 50 mg/L | > 50 mg/L | > 50 mg/L
15 | COC(=O)/C(C#N)=C1\CCC(C(=O)OC)N1C (stereo unspecified) | – | > 100 µM | – | > 100 µM | – | > 100 µM | – | > 100 µM | – | – | – | > 100 | – | > 100 µM | > 100 µM | > 100 µM | > 100 µM | – | – | –
16 | COc1ccc(CC(C)C(C)Cc2ccc(OC)c(OC)c2)cc1OC (stereo unspecified) | > 1400 µM | > 1400 µM | 600 µM | > 1400 µM | > 1400 µM | > 1400 µM | 804 µM | > 1400 µM | > 1400 µM | > 1400 µM | – | – | 112 µM | > 1400 µM | > 1400 µM | > 1400 µM | – | > 1400 µM | 79.7 µM | –
17 | CC(CC(=O)Nc1ccc(NC(=O)CC(C)N=NC(N)=S)cc1)N=NC(N)=S (stereo unspecified) | – | > 100 µM | – | > 100 µM | – | > 100 µM | – | > 100 µM | – | > 100 µM | – | > 100 | – | > 100 µM | > 100 µM | – | > 100 µM | – | – | –
